{"source": "patent US8148603B2", "about": "“Transgenic ficus, method for producing same and use thereof” (The State of Israel, Ministry of Agriculture & Rural …, priority 2004, dated 2012)", "type_in_all_cases": "in vivo", "key": {"[1]": {"test_system": "Ficus carica cv. Brown Turkey plants", "assay": "Herbicide resistance in control and transgenic Brown Turkey tissue culture", "source_text": "The pME504 plasmid which comprises the bar gene [Streptomyces hygroscopicus bar gene conferring resistance to herbicide bialaphos (X05822) Thompson, C. J., Movva, N. R., Tizard, R., Crameri, R., Davies, J. E., Lauwereys, M. and Botterman, J. Characterization of the herbicide-resistance gene bar from Streptomyces hygroscopicus EMBO J. 6, 2519-2523 (1987)] was used to transform ‘Brown Turkey’ plants. Herbicide resistance in control and transgenic Brawn Turkey cv. tissue culture line 001 was evaluated."}, "[2]": {"test_system": "Ficus carica leaf explants and shoots", "assay": "Tolerance of non-inoculated leaf explants and of shoots to kanamycin", "protocol": "In order to use kanamycin as a selection agent for transformed cells, non-inoculated leaf explants from in vitro fig cultures of both cultivars Brown Turkey and Smyrna were tested for their tolerance to kanamycin. Wounded leaves were placed on a regeneration medium supplemented with kanamycin at a concentration selected from 0, 10, 25, 50, 75 and 100 mg/l. The minimal concentration for inhibition of adventitious shoot induction for cv. Brown Turkey was 25 mg/l. However with cv. […] Therefore, the concentration of 50 mg/l kanamycin was initially chosen for selection in the subsequent transformation experiments.\nLeaf explants of 3-4 weeks old in vitro propagated Ficus carica plants were wounded across the main vein and co-cultivated with the disarmed strain EHA105 harboring the plasmid pME504, comprising the genes GUS-int and npt II. Following co-cultivation with A. tumefaciens, explants were initially placed on regeneration medium supplemented with 50 mg/l kanamycin and 150 mg/l ticarcillin and cultured with their adaxial side up. The leaf explants were exposed for one week to low light intensity and then transferred to normal light. Under the selective conditions of 50 mg/l kanamycin, up to 30% of the explants of Brown Turkey and up to 50% of Smyrna formed green shoots after 4 weeks of culture. […]"}, "Ficus carica shoots [3]": {"test_system": "Ficus carica shoots", "assay": "Root formation of regenerated shoots, rooting in liquid medium", "settings": "for Root formation (%) ± SE, Rooting in liquid medium: scored after 4 weeks", "protocol": "(§1) Two methods for rooting were examined. According to one method, each shoot was cultivated individually in a tube with root induction (RI) medium composed of half concentration MS medium (½MS) supplemented with 100 mg/l myo-inositol, 1 mg/l thiamine-HCl, 90 mg/l phloroglucinol, 2% sucrose (w/v), 0.25% activated charcoal (AC) and 0.8% agar (pH=5.7). The effect of IBA at different concentrations (0, 1, 2 mg/l) was also tested. Each treatment included 32 individual plants. According to another method, well developed shoots (up to 3-4 cm long with 3-4 expanded leaves) were directly transplanted from the proliferation medium to Rooting Cylinders (3.5 cm high×3.0 cm in diameter) with soil mixture comprising 55% granular polypropylene foam, 30% peat and 15% perlite (Tivonchem Ltd, Israel) moistened/soaked/with liquid RI medium without AC, supplemented with either 0, 1, 2 mg/l IBA. Results were scored (0=shoot with no root; 1=rotting shoot) after 4 weeks and based on 32 shoots (8 Magenta boxes with 4 cylinders) per treatment. Each experiment was repeated three times. Plantlets were cultured in closed boxes for one week in a growth chamber and then transferred for one week to a greenhouse. Then the plantlets were further transferred to a high humidity chamber without closures for additional 2 weeks for further acclimatization by decreasing the relative humidity stepwise.\n(§2) Two methods were examined to obtained root induction (Table 1). According to the first approach, each regenerated shoot was placed in a tube containing root induction medium comprising 2 mg/l IBA. Using this method, ca. 80% of the shoots formed roots. However, insufficient percentage of these plants was successfully acclimatized in the greenhouse conditions. According to the second approach, regenerated shoots were cultured directly in rooting cylinders, with or without 1 mg/l IBA. […] These plants had better hardening and growth characteristics and easier further acclimatization in the greenhouse conditions (FIG. 5)."}, "Ficus carica shoots [4]": {"test_system": "Ficus carica shoots", "assay": "Root formation of regenerated shoots, rooting in solid medium", "settings": "for Root formation (%) ± SE, Rooting in solid medium: scored after 4 weeks", "protocol": "as §1, §2"}, "[5]": {"test_system": "Ficus carica leaf explants", "assay": "Adventitious shoot regeneration from leaf explants", "settings": "control explants with TDZ only (0.5-5 mg/l); cv. Brown Turkey", "protocol": "Regeneration experiments were carried out initially with the cultivar Brown Turkey. To examine the effect of culture media on adventitious bud formation, the basal media MS, AP [13] and NN [14]; and various combinations of the auxins IBA and NAA (0.25-2 mg/l), NAA with the cytokinins TDZ (0.5-5 mg/l) and BA (2-5 mg/l) were examined. A control treatment with only TDZ (0.5-5 mg/l) was performed. The regeneration media contained MS basal salt mixture, supplemented with 100 mg/l myo-inositol, 1 mg/l thiamine-HCl, 2-4% sucrose (w/v) and 0.8%, agar (Sigma), at pH 5.7. The effect of the addition of 0.25% activated charcoal (AC) was also examined.\nThe youngest three expanded leaves isolated from 3-4 weeks old plants were used as explants. Each leaf was wounded forming three scares perpendicular to the central vein and placed on regeneration medium with the abaxial or adaxial surface down. Minimum ten Petri dishes, each containing ten explants were used per treatment. The cultures were kept for 7 days in low light intensity (2.5 μmol/m^2 s) followed by exposure to high light intensity (40 μmol/m^2 s) at 25° C., in a 16 hL/8 hD photoperiod. Leaf explants were examined after 28 and 35 days and the percentage of explant producing shoots (regeneration capacity) and the mean of adventitious shoots formed per regenerating explant (regeneration efficacy) were recorded. […]"}}}
{"smiles": "CP(=O)(O)CC[C@H](N)C(=O)O", "note": "[Basta, phosphinothricin]", "values": [{"measurement": "herbicide effect on non-transformed plants", "setting": "[1]; control Brown Turkey cv., increasing concentrations of PPT (FIG. 11)", "result": "signs of necrosis and chlorosis on basal leaves following two days and died one week later"}, {"measurement": "herbicide effect on resistant (bar transgenic) lines", "setting": "[1]; transgenic Brown Turkey cv. tissue culture line 001, 10 ppm Basta", "result": "propagated in vitro"}]}
{"smiles": "NC[C@H]1O[C@H](O[C@H]2[C@H](O)[C@@H](O[C@H]3O[C@H](CO)[C@@H](O)[C@H](N)[C@H]3O)[C@H](N)C[C@@H]2N)[C@H](O)[C@@H](O)[C@@H]1O", "note": "[kanamycin]", "values": [{"measurement": "effect on new emerging transgenic shoots", "setting": "[2]; more than 3 subcultures at 100 mg/l kanamycin on proliferation medium", "result": "inhibition of their growth and development"}, {"measurement": "minimal concentration for inhibition of adventitious shoot induction", "setting": "[2]; non-inoculated leaf explants, cv. Brown Turkey", "result": 25, "unit": "mg/L"}]}
{"smiles": "O=C(O)CCCc1c[nH]c2ccccc12", "note": "[IBA, indol-3-butyric acid]", "values": [{"measurement": "Root formation (%) ± SE, Rooting in liquid medium", "setting": "Ficus carica shoots [3]; IBA 1 mg/l", "result": "47 ± 5.43", "unit": "%"}, {"measurement": "Root formation (%) ± SE, Rooting in liquid medium", "setting": "Ficus carica shoots [3]; IBA 2 mg/l", "result": "81.3 ± 7.61", "unit": "%"}, {"measurement": "root formation", "setting": "Ficus carica shoots [3]; shoots directly in rooting cylinders, with or without 1 mg/l IBA, after 4 weeks", "result": 100, "unit": "%"}, {"measurement": "Root formation (%) ± SE, Rooting in solid medium", "setting": "Ficus carica shoots [4]; IBA 1 mg/l", "result": 100, "unit": "%"}, {"measurement": "Root formation (%) ± SE, Rooting in solid medium", "setting": "Ficus carica shoots [4]; IBA 2 mg/l", "result": "83 ± 6.27", "unit": "%"}, {"measurement": "shoots that formed roots", "setting": "Ficus carica shoots [4]; each shoot in a tube with root induction medium, 2 mg/l IBA", "result": "ca. 80%"}]}
{"smiles": "O=C(Nc1ccccc1)Nc1cnns1", "note": "[TDZ, N-phenyl-N′-1,2,3-thiadiazol-5-yl urea]", "values": [{"measurement": "regeneration frequency", "setting": "[5]", "result": "ca. 2%"}]}
